Measured values reported in patent US5108754A, “Orthomolecular method of treating sickle cell disease” (priority 1991, dated 1992).
“And” between values parts separate entries of the source, which are not always exact repeats. Equal values may be shown once.

Experiments:
rats = tested on: rats
Description: The compound prepared according to Example 1 was subjected to a toxicity study in accordance with techniques well-known in the art. The study was conducted on rats over a three-day testing period.

[1] = prior-art antisickling agent; cited from earlier work
[2] = second day, 0.01% dosage, individual rats #A-#D, listed as active agent

| Compound | rats killed after administration of the drug formulation (rats; rats, three days, 0.001%, 0.01%, 0.1% of rat weight on days 1, 2, 3) | toxicity (rats; rats, three-day study, 0.001%, 0.01%, 0.1% of rat weight) | Body Fluid Concentraton 0.01% (rats; [2]) | Weight After (rats; [2]) | Weight Before (rats; [2]) | Weight Change (rats; [2]) | toxicity [1] |
| --- | --- | --- | --- | --- | --- | --- | --- |
| Cc1c(C)c2c(c(C)c1OC(=O)C(N)CC[S+](C)CC1OC(n3cnc4c(N)ncnc43)C(O)C1O)CCC(C)(CCCC(C)CCCC(C)CCCC(C)C)O2.[I-] (stereo not drawn) [Example 1, α-(S-adenosylmethionine)-O-tocopherol] | none of the rats tested were killed | substantially non-toxic | 0.14 and 0.07 | 28.5 grams and 26.4 grams and 29.5 grams | 28.3 grams and 26.3 grams and 29.4 grams | 0.2 grams and 0.1 grams |  |
| N#CO [potassium cyanate] |  |  |  |  |  |  | rather high toxicity |
